How the values were obtained:
[1] = system: β-adrenergic receptors; assay: inhibition of internalization of β-adrenergic receptors (receptor/ligand complex) into the cell; format: cell-based; conditions: studies carried out by the applicant; result in words
[2] = system: β-adrenergic receptor; assay: direct action on the β-adrenergic receptor; conditions: studies carried out by the applicant; result in words

Row | Structure (SMILES) | inhibition of the process of internalizing β-adrenergic receptors [1] | direct attack on the β-adrenergic receptor [2]
1 | C[C@@H]1O[C@@H](O[C@H]2[C@H](O[C@H]3CC[C@@]4(C)[C@@H](CC[C@]5(C)[C@@H]4CC=C4[C@@H]6CC(C)(C)CC[C@]6(C(=O)O)CC[C@]45C)[C@]3(C)CO)OC[C@H](O)[C@@H]2O)[C@H](O)[C@H](O)[C@H]1O [α-hederin] | inhibits the process of internalizing β-adrenergic receptors in a specific manner | does not attack the β-adrenergic receptor directly
2 | C[C@@H]1O[C@@H](O[C@H]2[C@H](O[C@H]3CC[C@@]4(C)[C@@H](CC[C@]5(C)[C@@H]4CC=C4[C@@H]6CC(C)(C)CC[C@]6(C(=O)O[C@@H]6O[C@H](CO[C@@H]7O[C@H](CO)[C@@H](O[C@@H]8O[C@@H](C)[C@H](O)[C@@H](O)[C@H]8O)[C@H](O)[C@H]7O)[C@@H](O)[C@H](O)[C@H]6O)CC[C@]45C)[C@]3(C)CO)OC[C@H](O)[C@@H]2O)[C@H](O)[C@H](O)[C@H]1O [hederacoside C] | unable to inhibit the process of internalization | 
3 | CC1(C)CC[C@]2(C(=O)O)CC[C@]3(C)C(=CC[C@@H]4[C@@]5(C)CC[C@H](O)[C@@](C)(CO)[C@@H]5CC[C@]43C)[C@@H]2C1 [hederagenin] | unable to inhibit the process of internalization | 

Source: US20060057236A1, “Process for producing an extract of ivy leaves” (priority 2003, published 2006)
